Source: the NIST ThermoML archive (doi:10.1021/je800463k)

Assay: mn = molality of the nth substance listed, in mol/kg
Details: 101 kPa, Liquid; for electrical conductivity: Frequency=0.001 MHz, Alternating current cell with electrodes; for speed of sound: Frequency=2 MHz; for mass density: Pycnometric method

[Mg+2].[O-][Cl+3]([O-])([O-])[O-].[O-][Cl+3]([O-])([O-])[O-] [magnesium perchlorate] + CO
Details	electrical conductivity [S/m]	mass density [kg/m3]	speed of sound [m/s]	viscosity [mPa·s]
273.15 K, m1 = 0.0542	0.2699	–	1195.2	0.8742
273.15 K, m1 = 0.078	0.4031	–	1201.1	–
273.15 K, m1 = 0.0925	0.4435	–	1203.6	0.9094
273.15 K, m1 = 0.1673	0.6702	–	1212.8	0.9874
273.15 K, m1 = 0.2872	0.9762	–	1226	1.13
273.15 K, m1 = 0.3228	1.058	–	1230.6	1.168
273.15 K, m1 = 0.4313	1.299	–	1245.5	1.329
273.15 K, m1 = 0.6444	1.752	–	1268.2	1.64
273.15 K, m1 = 1.059	2.122	–	1308.9	2.393
273.15 K, m1 = 1.395	2.273	–	1342.5	3.292
273.15 K, m1 = 1.717	2.343	–	1366.9	3.854
273.15 K, m1 = 2	2.355	–	1385.5	4.766
283.15 K, m1 = 0.0542	0.3054	–	1162.7	0.7345
283.15 K, m1 = 0.078	0.4563	–	1167.8	–
283.15 K, m1 = 0.0925	0.5023	–	1170.8	0.768
283.15 K, m1 = 0.1673	0.7619	–	1178.9	0.8318
283.15 K, m1 = 0.2872	1.116	–	1193.9	0.9437
283.15 K, m1 = 0.3228	1.213	–	1197.5	0.9745
283.15 K, m1 = 0.4313	1.497	–	1213.2	1.102
283.15 K, m1 = 0.6444	2.001	–	1236.8	1.342
283.15 K, m1 = 1.059	2.513	–	1278.5	1.928
283.15 K, m1 = 1.395	2.731	–	1313.4	2.608
283.15 K, m1 = 1.717	2.848	–	1336.5	3.023
283.15 K, m1 = 2	2.892	–	1358.1	3.682
293.15 K, m1 = 0.0542	0.3414	–	1128.4	0.6286
293.15 K, m1 = 0.078	0.5074	–	1134.9	–
293.15 K, m1 = 0.0925	0.5615	–	1137.7	0.6569
293.15 K, m1 = 0.1673	0.854	–	1146	0.7098
293.15 K, m1 = 0.2872	1.253	–	1161.8	0.7995
293.15 K, m1 = 0.3228	1.37	–	1165.4	0.8248
293.15 K, m1 = 0.4313	1.702	–	1181.4	0.9286
293.15 K, m1 = 0.6444	2.209	–	1205.9	1.112
293.15 K, m1 = 1.059	2.926	–	1247.5	1.585
293.15 K, m1 = 1.395	3.221	–	1282.1	2.11
293.15 K, m1 = 1.717	3.39	–	1307.5	2.43
293.15 K, m1 = 2	3.474	–	1329.1	2.923
294 K, m1 = 0.078	–	802.89	–	–
295.3 K, m1 = 0.0925	–	802.82	–	–
296.85 K, m1 = 0.3228	–	829.87	–	–
296.9 K, m1 = 0.2872	–	825.72	–	–
297.7 K, m1 = 0.078	–	799.44	–	–
298 K, m1 = 0.0925	–	800.22	–	–
298.15 K, m1 = 0.0542	0.3599	–	1111.3	0.5841
298.15 K, m1 = 0.078	0.5344	–	1119.1	–
298.15 K, m1 = 0.0925	0.5917	–	1121.2	0.6098
298.15 K, m1 = 0.1673	0.9009	–	1129.8	0.656
298.15 K, m1 = 0.2872	1.332	–	1145.7	0.7391
298.15 K, m1 = 0.3228	1.452	–	1149.1	0.7618
298.15 K, m1 = 0.4313	1.807	–	1165.2	0.856
298.15 K, m1 = 0.6444	2.389	–	1189.2	1.019
298.15 K, m1 = 1.059	3.143	–	1232	1.446
298.15 K, m1 = 1.395	3.48	–	1267.7	1.91
298.15 K, m1 = 1.717	3.683	–	1293.2	2.196
298.15 K, m1 = 2	3.779	–	1314.4	2.624
298.3 K, m1 = 0.1673	–	809.54	–	–
299.45 K, m1 = 0.078	–	797.76	–	–
299.75 K, m1 = 0.3228	–	827.21	–	–
299.8 K, m1 = 0.0925	–	798.59	–	–
299.8 K, m1 = 0.2872	–	823.08	–	–
301.15 K, m1 = 0.078	–	796.1	–	–
301.15 K, m1 = 0.1673	–	806.95	–	–
301.65 K, m1 = 0.0925	–	796.87	–	–
302.7 K, m1 = 0.3228	–	824.56	–	–
302.75 K, m1 = 0.2872	–	820.44	–	–
302.75 K, m1 = 2	–	1006.5	–	–
302.9 K, m1 = 0.078	–	794.53	–	–
303.05 K, m1 = 0.1673	–	805.22	–	–
303.15 K, m1 = 0.0542	0.3785	–	1094.8	0.5431
303.15 K, m1 = 0.078	0.5625	–	1101.6	–
303.15 K, m1 = 0.0925	0.6223	–	1104.6	0.5669
303.15 K, m1 = 0.1673	0.9485	–	1114	0.6084
303.15 K, m1 = 0.2872	1.407	–	1129.8	0.684
303.15 K, m1 = 0.3228	1.534	–	1133.5	0.7005
303.15 K, m1 = 0.4313	1.913	–	1147	0.7937
303.15 K, m1 = 0.6444	2.541	–	1173.3	0.9348
303.15 K, m1 = 1.059	3.367	–	1217	1.323
303.15 K, m1 = 1.395	3.746	–	1253.3	1.732
303.15 K, m1 = 1.717	3.979	–	1277.6	1.99
303.15 K, m1 = 2	4.1	–	1301.6	2.362
303.5 K, m1 = 0.4313	–	838.73	–	–
303.55 K, m1 = 1.059	–	918.43	–	–
303.55 K, m1 = 1.717	–	980.32	–	–
303.9 K, m1 = 0.0542	–	788.92	–	–
304.2 K, m1 = 0.0925	–	794.46	–	–
304.55 K, m1 = 1.395	–	955.29	–	–
304.85 K, m1 = 0.6444	–	864.55	–	–
305.45 K, m1 = 0.2872	–	817.88	–	–
305.5 K, m1 = 0.078	–	792.01	–	–
305.5 K, m1 = 0.3228	–	821.98	–	–
305.7 K, m1 = 0.1673	–	802.67	–	–
305.75 K, m1 = 1.059	–	916.49	–	–
305.95 K, m1 = 0.6444	–	863.6	–	–
306 K, m1 = 1.717	–	978.23	–	–
306.55 K, m1 = 0.4313	–	836.04	–	–
306.6 K, m1 = 0.0542	–	786.39	–	–
306.65 K, m1 = 2	–	1003.3	–	–
306.8 K, m1 = 0.0925	–	791.94	–	–
306.95 K, m1 = 1.395	–	953.22	–	–
307.15 K, m1 = 0.078	–	790.37	–	–
307.25 K, m1 = 0.2872	–	816.19	–	–
307.3 K, m1 = 0.3228	–	820.29	–	–
307.35 K, m1 = 0.1673	–	801.01	–	–
308 K, m1 = 1.059	–	914.51	–	–
308.05 K, m1 = 0.6444	–	861.75	–	–
308.35 K, m1 = 0.0542	–	784.7	–	–
308.45 K, m1 = 1.717	–	976.24	–	–
308.5 K, m1 = 0.4313	–	834.26	–	–
309.25 K, m1 = 2	–	1001.1	–	–
309.3 K, m1 = 1.395	–	951.18	–	–
309.35 K, m1 = 0.0925	–	789.49	–	–
309.7 K, m1 = 0.078	–	787.95	–	–
309.9 K, m1 = 0.2872	–	813.69	–	–
309.95 K, m1 = 0.3228	–	817.77	–	–
310.85 K, m1 = 1.717	–	974.13	–	–
311.05 K, m1 = 0.0542	–	782.22	–	–
311.05 K, m1 = 0.0925	–	787.88	–	–
311.15 K, m1 = 0.6444	–	859.02	–	–
311.4 K, m1 = 0.4313	–	831.61	–	–
311.45 K, m1 = 1.059	–	911.67	–	–
311.55 K, m1 = 1.395	–	949.18	–	–
311.75 K, m1 = 0.1673	–	796.89	–	–
311.75 K, m1 = 2	–	999.04	–	–
312.55 K, m1 = 0.2872	–	811.13	–	–
312.6 K, m1 = 0.3228	–	815.21	–	–
313.15 K, m1 = 0.0542	0.4141	–	1062.7	0.4735
313.15 K, m1 = 0.078	0.6138	–	1069.7	–
313.15 K, m1 = 0.0925	0.6801	–	1072.7	0.4938
313.15 K, m1 = 0.1673	1.04	–	1082.2	0.5284
313.15 K, m1 = 0.2872	1.549	–	1098.9	0.5874
313.15 K, m1 = 0.3228	1.691	–	1102.5	0.6082
313.15 K, m1 = 0.4313	2.119	–	1115.5	0.6824
313.15 K, m1 = 0.6444	2.844	–	1141.6	0.7966
313.15 K, m1 = 1.059	3.813	–	1185.5	1.119
313.15 K, m1 = 1.395	4.297	–	1224.6	1.445
313.15 K, m1 = 1.717	4.592	–	1249.9	1.656
313.15 K, m1 = 2	4.75	–	1273.8	1.945
313.25 K, m1 = 0.4313	–	829.89	–	–
313.25 K, m1 = 1.717	–	972.12	–	–
313.35 K, m1 = 0.1673	–	795.24	–	–
313.6 K, m1 = 0.0542	–	779.81	–	–
313.75 K, m1 = 1.395	–	947.21	–	–
314.05 K, m1 = 0.6444	–	856.37	–	–
314.15 K, m1 = 2	–	996.96	–	–
314.65 K, m1 = 1.059	–	908.74	–	–
315.1 K, m1 = 0.2872	–	808.66	–	–
315.2 K, m1 = 0.3228	–	812.71	–	–
315.8 K, m1 = 0.1673	–	792.81	–	–
315.85 K, m1 = 0.6444	–	854.66	–	–
315.9 K, m1 = 1.395	–	945.34	–	–
316 K, m1 = 0.4313	–	827.39	–	–
316.1 K, m1 = 0.0542	–	777.42	–	–
316.75 K, m1 = 1.717	–	969.14	–	–
317.85 K, m1 = 1.059	–	906.01	–	–
317.9 K, m1 = 2	–	993.97	–	–
318.5 K, m1 = 0.0542	–	774.98	–	–
318.5 K, m1 = 0.6444	–	851.96	–	–
318.65 K, m1 = 0.4313	–	824.78	–	–
319 K, m1 = 1.717	–	967.11	–	–
319.3 K, m1 = 1.395	–	942.34	–	–
320.05 K, m1 = 0.0542	–	773.35	–	–
320.15 K, m1 = 2	–	991.84	–	–
320.2 K, m1 = 0.6444	–	850.2	–	–
320.65 K, m1 = 1.059	–	903.14	–	–
321.15 K, m1 = 0.4313	–	822.18	–	–
322.3 K, m1 = 2	–	989.79	–	–
322.35 K, m1 = 1.717	–	964.07	–	–
322.45 K, m1 = 1.059	–	901.27	–	–
322.5 K, m1 = 1.395	–	939.42	–	–
